Experimental data: PubChem BioAssay AID2060337 (Molecular Pharmacology Branch, DTP, NCI, 2025)
Values joined by “and” are separate entries in the source; they are usually repeats but may differ in a detail not shown here. Equal values may be shown once. Blank lines part the entries; values can stand above or below the compound they belong to.

Test system: 832693-133-R-J1-PDC multi-cell spheroids, viability
Experiment: Anticancer human tumor 832693-133-R-J1-PDC patient-derived head and neck squamous carcinoma cell line growth inhibition [IpAb]
Settings: for viability, T/C: stronger effect = lower value
Method in brief: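 Spheroids of 60% malignant cells, 25% HUVEC and 15% MSC were exposed to targeted agents combined with ipatasertib or abemaciclib. Doses started at or near clinical Cmax (10 microM when unknown) and fell in half-log steps.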

[1] = curve of first compound, second compound 0.1 µM
[2] = curve of first compound, second compound 0.316 µM
[3] = curve of first compound, second compound 1 µM
[4] = second compound 0.1 µM, first compound 0.00316 µM
[5] = second compound 0.1 µM, first compound 0.01 µM
[6] = second compound 0.1 µM, first compound 0.0316 µM
[7] = second compound 0.1 µM, first compound 0.1 µM
[8] = second compound 0.1 µM, first compound 0.316 µM
[9] = second compound 0.1 µM, first compound 1 µM
[10] = second compound 0.316 µM, first compound 0.00316 µM
[11] = second compound 0.316 µM, first compound 0.01 µM
[12] = second compound 0.316 µM, first compound 0.0316 µM
[13] = second compound 0.316 µM, first compound 0.1 µM
[14] = second compound 0.316 µM, first compound 0.316 µM
[15] = second compound 0.316 µM, first compound 1 µM
[16] = second compound 1 µM, first compound 0.00316 µM
[17] = second compound 1 µM, first compound 0.01 µM
[18] = second compound 1 µM, first compound 0.0316 µM
[19] = second compound 1 µM, first compound 0.1 µM
[20] = second compound 1 µM, first compound 0.316 µM
[21] = second compound 1 µM, first compound 1 µM
[22] = curve of first compound, second compound 0.01 µM
[23] = curve of first compound, second compound 0.0316 µM
[24] = second compound 0.01 µM, first compound 0.00316 µM
[25] = second compound 0.01 µM, first compound 0.01 µM
[26] = second compound 0.01 µM, first compound 0.0316 µM
[27] = second compound 0.01 µM, first compound 0.1 µM
[28] = second compound 0.01 µM, first compound 0.316 µM
[29] = second compound 0.01 µM, first compound 1 µM
[30] = second compound 0.0316 µM, first compound 0.00316 µM
[31] = second compound 0.0316 µM, first compound 0.01 µM
[32] = second compound 0.0316 µM, first compound 0.0316 µM
[33] = second compound 0.0316 µM, first compound 0.1 µM
[34] = second compound 0.0316 µM, first compound 0.316 µM
[35] = second compound 0.0316 µM, first compound 1 µM
[36] = second compound 0.01 µM, first compound 3.16 µM
[37] = second compound 0.01 µM, first compound 10 µM
[38] = second compound 0.0316 µM, first compound 3.16 µM
[39] = second compound 0.0316 µM, first compound 10 µM
[40] = second compound 0.1 µM, first compound 3.16 µM
[41] = second compound 0.1 µM, first compound 10 µM
[42] = second compound 0.316 µM, first compound 3.16 µM
[43] = second compound 0.316 µM, first compound 10 µM
[44] = second compound 1 µM, first compound 3.16 µM
[45] = second compound 1 µM, first compound 10 µM
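Note: spheroids exposed to the drugs for one week before the viability readout.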
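Throughout, for viability, T/C: 100% = DMSO vehicle control wells.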

SMILES: COc1c(OCCCN2CCOCC2)ccc2c3n(c(=NC(=O)c4cnc(N)nc4)nc12)CCN3 + CC(C)NCC(C(=O)N1CCN(c2ncnc3c2C(C)CC3O)CC1)c1ccc(Cl)cc1
IC50 [1]: 15.4 nM
IC50 [2]: 5.27 nM
IC50 [3]: < 3.16 nM
IC50 (curve of first compound, second compound 3.16 µM): < 3.16 nM
IC50 (curve of first compound, second compound 10 µM): < 3.16 nM
viability, T/C [4]: 83.1%
viability, T/C [5]: 63.4%
viability, T/C [6]: 27.4%
viability, T/C [7]: 7.23%
viability, T/C [8]: 4.92%
viability, T/C [9]: 4.02%
viability, T/C [10]: 59.6%
viability, T/C [11]: 37.7%
viability, T/C [12]: 19.2%
viability, T/C [13]: 7.29%
viability, T/C [14]: 3.93%
viability, T/C [15]: 3.87%
viability, T/C [16]: 43.2%
viability, T/C [17]: 20.6%
viability, T/C [18]: 12.7%
viability, T/C [19]: 6.94%
viability, T/C [20]: 4.52%
viability, T/C [21]: 3.27%
viability, T/C (second compound 3.16 µM, first compound 0.00316 µM): 30.5%
viability, T/C (second compound 3.16 µM, first compound 0.01 µM): 18.4%
viability, T/C (second compound 3.16 µM, first compound 0.0316 µM): 11.2%
viability, T/C (second compound 3.16 µM, first compound 0.1 µM): 7.39%
viability, T/C (second compound 3.16 µM, first compound 0.316 µM): 5.57%
viability, T/C (second compound 3.16 µM, first compound 1 µM): 4.86%
viability, T/C (second compound 10 µM, first compound 0.00316 µM): 32.8%
viability, T/C (second compound 10 µM, first compound 0.01 µM): 22.8%
viability, T/C (second compound 10 µM, first compound 0.0316 µM): 14.2%
viability, T/C (second compound 10 µM, first compound 0.1 µM): 7.94%
viability, T/C (second compound 10 µM, first compound 0.316 µM): 5.9%
viability, T/C (second compound 10 µM, first compound 1 µM): 5.91%

SMILES: COc1c(OCCCN2CCOCC2)ccc2c3n(c(=NC(=O)c4cnc(N)nc4)nc12)CCN3 + CCN1CCN(Cc2ccc(Nc3ncc(F)c(-c4cc(F)c5nc(C)n(C(C)C)c5c4)n3)nc2)CC1
IC50 [22]: 14.4 nM
IC50 [23]: 11.2 nM
IC50 [1]: 7.16 nM
IC50 [2]: 4.44 nM
IC50 [3]: 6.11 nM
viability, T/C [24]: 89.4%
viability, T/C [25]: 61.8%
viability, T/C [26]: 24.7%
viability, T/C [27]: 7.08%
viability, T/C [28]: 3.46%
viability, T/C [29]: 5.82%
viability, T/C [30]: 74.2%
viability, T/C [31]: 52.7%
viability, T/C [32]: 23.4%
viability, T/C [33]: 5.88%
viability, T/C [34]: 3%
viability, T/C [35]: 2.63%
viability, T/C [4]: 60.1%
viability, T/C [5]: 45.6%
viability, T/C [6]: 22.1%
viability, T/C [7]: 6.68%
viability, T/C [8]: 3.33%
viability, T/C [9]: 3.51%
viability, T/C [10]: 53.8%
viability, T/C [11]: 40.8%
viability, T/C [12]: 21.5%
viability, T/C [13]: 9.72%
viability, T/C [14]: 6.61%
viability, T/C [15]: 6.55%
viability, T/C [16]: 53.2%
viability, T/C [17]: 47.7%
viability, T/C [18]: 23.4%
viability, T/C [19]: 16.2%
viability, T/C [20]: 12%
viability, T/C [21]: 14.8%

IC50 (compound alone, run of 05/18/2021): > 10000 nM and 6660 nM and 1870 nM
SMILES: CC(C)NCC(C(=O)N1CCN(c2ncnc3c2C(C)CC3O)CC1)c1ccc(Cl)cc1 (stereo not drawn)
viability, T/C (compound 0.1 µM): 89.5% [middle of 13 runs]
viability, T/C (compound 0.316 µM): 78.2% [middle of 12 runs]
viability, T/C (compound 1 µM): 58% [middle of 13 runs]
viability, T/C (compound 3.16 µM): 55.3% [middle of 13 runs]
viability, T/C (compound 10 µM): 58.4% [middle of 13 runs]

SMILES: C=CC(=O)N1CCN(c2nc(=O)n(-c3c(C)ccnc3C(C)C)c3nc(-c4c(O)cccc4F)c(F)cc23)C(C)C1 (stereo not drawn) + CCN1CCN(Cc2ccc(Nc3ncc(F)c(-c4cc(F)c5nc(C)n(C(C)C)c5c4)n3)nc2)CC1
IC50 [22]: > 10000 nM
IC50 [23]: > 10000 nM
IC50 [1]: > 10000 nM
IC50 [2]: > 10000 nM
IC50 [3]: > 10000 nM
viability, T/C [26]: 96.7%
viability, T/C [27]: 104%
viability, T/C [28]: 105%
viability, T/C [29]: 109%
viability, T/C [36]: 117%
viability, T/C [37]: 104%
viability, T/C [32]: 89.5%
viability, T/C [33]: 89.6%
viability, T/C [34]: 90.5%
viability, T/C [35]: 92.2%
viability, T/C [38]: 115%
viability, T/C [39]: 95%
viability, T/C [6]: 68.8%
viability, T/C [7]: 78.8%
viability, T/C [8]: 73.3%
viability, T/C [9]: 82.9%
viability, T/C [40]: 101%
viability, T/C [41]: 86.3%
viability, T/C [12]: 58.3%
viability, T/C [13]: 59.3%
viability, T/C [14]: 64%
viability, T/C [15]: 64.9%
viability, T/C [42]: 77.5%
viability, T/C [43]: 84.2%
viability, T/C [18]: 53.8%
viability, T/C [19]: 58.9%
viability, T/C [20]: 65.5%
viability, T/C [21]: 73.7%
viability, T/C [44]: 82.4%
viability, T/C [45]: 98.4%

IC50 (curve of compound): 1070 nM and 1650 nM
SMILES: Cn1nccc1Nc1nccc(-c2ccn(C(CO)c3ccc(Cl)c(F)c3)c(=O)c2)n1 (stereo not drawn)
viability, T/C (compound 0.0316 µM): 97.1% and 93.1%
viability, T/C (compound 0.1 µM): 77% and 82.1%
viability, T/C (compound 0.316 µM): 64.1% and 70.2%
viability, T/C (compound 1 µM): 57.1% and 65.9%
viability, T/C (compound 3.16 µM): 34.3% and 33.6%
viability, T/C (compound 10 µM): 13% and 24.2%

SMILES: CCCS(=O)(=O)Nc1ccc(F)c(C(=O)c2c[nH]c3ncc(-c4ccc(Cl)cc4)cc23)c1F + CCN1CCN(Cc2ccc(Nc3ncc(F)c(-c4cc(F)c5nc(C)n(C(C)C)c5c4)n3)nc2)CC1
IC50 [22]: 5060 nM
IC50 [23]: 3490 nM
IC50 [1]: 1240 nM
IC50 [2]: < 31.6 nM
IC50 [3]: 77.5 nM
viability, T/C [26]: 97.9%
viability, T/C [27]: 105%
viability, T/C [28]: 100%
viability, T/C [29]: 87.6%
viability, T/C [36]: 63.6%
viability, T/C [37]: 30.9%
viability, T/C [32]: 88.7%
viability, T/C [33]: 88.4%
viability, T/C [34]: 81.5%
viability, T/C [35]: 74.9%
viability, T/C [38]: 51.4%
viability, T/C [39]: 28.3%
viability, T/C [6]: 66.3%
viability, T/C [7]: 60.1%
viability, T/C [8]: 64.9%
viability, T/C [9]: 51.9%
viability, T/C [40]: 35.7%
viability, T/C [41]: 15.2%
viability, T/C [12]: 44.8%
viability, T/C [13]: 51.9%
viability, T/C [14]: 40.4%
viability, T/C [15]: 36.9%
viability, T/C [42]: 26.6%
viability, T/C [43]: 13.4%
viability, T/C [18]: 50.5%
viability, T/C [19]: 49.6%
viability, T/C [20]: 44.2%
viability, T/C [21]: 24.8%
viability, T/C [44]: 18.8%
viability, T/C [45]: 13.3%

SMILES: Cn1ncnc1[C@H]1c2n[nH]c(=O)c3cc(F)cc(c23)N[C@@H]1c1ccc(F)cc1 + CCN1CCN(Cc2ccc(Nc3ncc(F)c(-c4cc(F)c5nc(C)n(C(C)C)c5c4)n3)nc2)CC1
IC50 [22]: > 100 nM
IC50 [23]: > 100 nM
IC50 [1]: > 100 nM
IC50 [2]: > 100 nM
IC50 [3]: > 100 nM
viability, T/C (second compound 0.01 µM, first compound 0.000316 µM): 101%
viability, T/C (second compound 0.01 µM, first compound 0.001 µM): 109%
viability, T/C [24]: 93.2%
viability, T/C [25]: 91.9%
viability, T/C [26]: 94.7%
viability, T/C [27]: 77.3%
viability, T/C (second compound 0.0316 µM, first compound 0.000316 µM): 90.5%
viability, T/C (second compound 0.0316 µM, first compound 0.001 µM): 86.1%
viability, T/C [30]: 73.8%
viability, T/C [31]: 74.6%
viability, T/C [32]: 76%
viability, T/C [33]: 69.5%
viability, T/C (second compound 0.1 µM, first compound 0.000316 µM): 60.1%
viability, T/C (second compound 0.1 µM, first compound 0.001 µM): 58%
viability, T/C [4]: 61%
viability, T/C [5]: 70.5%
viability, T/C [6]: 63%
viability, T/C [7]: 63.2%
viability, T/C (second compound 0.316 µM, first compound 0.000316 µM): 59.1%
viability, T/C (second compound 0.316 µM, first compound 0.001 µM): 53.6%
viability, T/C [10]: 60.5%
viability, T/C [11]: 56.5%
viability, T/C [12]: 60.8%
viability, T/C [13]: 56.3%
viability, T/C (second compound 1 µM, first compound 0.000316 µM): 63.6%
viability, T/C (second compound 1 µM, first compound 0.001 µM): 56.2%
viability, T/C [16]: 60.6%
viability, T/C [17]: 63.5%
viability, T/C [18]: 65.2%
viability, T/C [19]: 48.2%
